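Each compound was tested at five concentrations against cells in 96-well plates for 48 hours. GI50: concentration for 50% inhibition of growth. TGI: total growth inhibition.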
Experiments:
Test in all cases: NCI anticancer screen, dose series, 48 h
OVCAR-8 ovarian = test system: OVCAR-8 ovarian
SN12C renal = test system: SN12C renal
HOP-62 NSCLC = test system: HOP-62 NSCLC
DU-145 prostate = test system: DU-145 prostate
MDA-MB-231 breast = test system: MDA-MB-231 breast
HOP-92 NSCLC = test system: HOP-92 NSCLC
LOX IMVI melanoma = test system: LOX IMVI melanoma
K-562 leukemia = test system: K-562 leukemia
EKVX NSCLC = test system: EKVX NSCLC
HL-60(TB) leukemia = test system: HL-60(TB) leukemia
UO-31 renal = test system: UO-31 renal
HCT-15 colon = test system: HCT-15 colon
CCRF-CEM leukemia = test system: CCRF-CEM leukemia
RXF 393 renal = test system: RXF 393 renal
BT-549 breast = test system: BT-549 breast
M14 melanoma = test system: M14 melanoma
SK-MEL-2 melanoma = test system: SK-MEL-2 melanoma
UACC-62 melanoma = test system: UACC-62 melanoma
SR leukemia = test system: SR leukemia
RPMI-8226 leukemia = test system: RPMI-8226 leukemia
OVCAR-3 ovarian = test system: OVCAR-3 ovarian
COLO 205 colon = test system: COLO 205 colon
HT29 colon = test system: HT29 colon
MDA-MB-435 = test system: MDA-MB-435
NCI-H226 lung = test system: NCI-H226 lung
SF-295 CNS = test system: SF-295 CNS
SNB-75 CNS = test system: SNB-75 CNS
SK-MEL-28 melanoma = test system: SK-MEL-28 melanoma
SK-OV-3 ovarian = test system: SK-OV-3 ovarian
PC-3 prostate = test system: PC-3 prostate
A498 renal = test system: A498 renal
IGROV1 ovarian = test system: IGROV1 ovarian
MALME-3M melanoma = test system: MALME-3M melanoma
OVCAR-5 ovarian = test system: OVCAR-5 ovarian
SW-620 colon = test system: SW-620 colon
HCT-116 colon = test system: HCT-116 colon
ACHN renal = test system: ACHN renal
CAKI-1 renal = test system: CAKI-1 renal
SK-MEL-5 melanoma = test system: SK-MEL-5 melanoma
U251 CNS = test system: U251 CNS
NCI-H522 lung = test system: NCI-H522 lung
NCI-H23 lung = test system: NCI-H23 lung
786-0 renal = test system: 786-0 renal
MCF7 breast = test system: MCF7 breast
SF-539 CNS = test system: SF-539 CNS
HS 578T breast = test system: HS 578T breast
TK-10 renal = test system: TK-10 renal
SNB-19 CNS = test system: SNB-19 CNS
MOLT-4 leukemia = test system: MOLT-4 leukemia
HCC-2998 colon = test system: HCC-2998 colon
UACC-257 melanoma = test system: UACC-257 melanoma
NCI-H460 lung = test system: NCI-H460 lung
OVCAR-4 ovarian = test system: OVCAR-4 ovarian
A549 NSCLC = test system: A549 NSCLC
NCI/ADR-RES ovarian = test system: NCI/ADR-RES ovarian
KM12 colon = test system: KM12 colon
T-47D breast = test system: T-47D breast
SF-268 CNS = test system: SF-268 CNS

Compound: Cc1noc(C)c1-c1ccc2[nH]c(=O)n3c2c1OC[C@@H]3c1ccccn1
- GI50 (OVCAR-8 ovarian): 11 µM
- TGI (OVCAR-8 ovarian): > 100 µM
- GI50 (SN12C renal): 21.4 µM
- TGI (SN12C renal): > 100 µM
- GI50 (HOP-62 NSCLC): 0.482 µM
- TGI (HOP-62 NSCLC): > 100 µM
- GI50 (DU-145 prostate): > 64.3 µM
- TGI (DU-145 prostate): > 100 µM
- GI50 (MDA-MB-231 breast): 0.868 µM
- TGI (MDA-MB-231 breast): > 100 µM
- GI50 (HOP-92 NSCLC): 0.323 µM
- TGI (HOP-92 NSCLC): > 100 µM
- GI50 (LOX IMVI melanoma): 0.581 µM
- TGI (LOX IMVI melanoma): > 32.1 µM
- GI50 (K-562 leukemia): 0.959 µM
- TGI (K-562 leukemia): > 100 µM
- GI50 (EKVX NSCLC): 2.39 µM
- TGI (EKVX NSCLC): > 100 µM
- GI50 (HL-60(TB) leukemia): 0.144 µM
- TGI (HL-60(TB) leukemia): > 100 µM
- GI50 (UO-31 renal): 0.18 µM
- TGI (UO-31 renal): > 100 µM
- GI50 (HCT-15 colon): 0.653 µM
- TGI (HCT-15 colon): > 100 µM
- GI50 (CCRF-CEM leukemia): 2.07 µM
- TGI (CCRF-CEM leukemia): > 100 µM
- GI50 (RXF 393 renal): 1.26 µM
- TGI (RXF 393 renal): > 25.3 µM
- GI50 (BT-549 breast): 15.6 µM
- TGI (BT-549 breast): > 100 µM
- GI50 (M14 melanoma): 0.803 µM
- TGI (M14 melanoma): > 100 µM
- GI50 (SK-MEL-2 melanoma): > 89.5 µM
- TGI (SK-MEL-2 melanoma): > 100 µM
- GI50 (UACC-62 melanoma): 0.302 µM
- TGI (UACC-62 melanoma): > 100 µM
- GI50 (SR leukemia): 0.267 µM
- TGI (SR leukemia): > 100 µM
- GI50 (RPMI-8226 leukemia): 0.267 µM
- TGI (RPMI-8226 leukemia): > 20.2 µM
- GI50 (OVCAR-3 ovarian): 3.84 µM
- TGI (OVCAR-3 ovarian): > 100 µM
- GI50 (COLO 205 colon): 0.433 µM
- TGI (COLO 205 colon): > 100 µM
- GI50 (HT29 colon): 0.415 µM
- TGI (HT29 colon): > 100 µM
- GI50 (MDA-MB-435): 3 µM
- TGI (MDA-MB-435): > 100 µM
- GI50 (NCI-H226 lung): 2.22 µM
- TGI (NCI-H226 lung): > 100 µM
- GI50 (SF-295 CNS): 1.84 µM
- TGI (SF-295 CNS): > 100 µM
- GI50 (SNB-75 CNS): 0.0166 µM
- TGI (SNB-75 CNS): 0.171 µM
- GI50 (SK-MEL-28 melanoma): > 25.8 µM
- TGI (SK-MEL-28 melanoma): > 100 µM
- GI50 (SK-OV-3 ovarian): 0.634 µM
- TGI (SK-OV-3 ovarian): > 100 µM
- GI50 (PC-3 prostate): 2.88 µM
- TGI (PC-3 prostate): > 100 µM
- TGI (A498 renal): 6.25 µM
- GI50 (IGROV1 ovarian): 0.965 µM
- TGI (IGROV1 ovarian): > 100 µM
- GI50 (MALME-3M melanoma): 1 µM
- TGI (MALME-3M melanoma): > 100 µM
- GI50 (OVCAR-5 ovarian): 5.87 µM
- TGI (OVCAR-5 ovarian): > 100 µM
- GI50 (SW-620 colon): > 100 µM
- TGI (SW-620 colon): > 100 µM
- GI50 (HCT-116 colon): 2.84 µM
- TGI (HCT-116 colon): > 100 µM
- GI50 (ACHN renal): 1.5 µM
- TGI (ACHN renal): > 100 µM
- GI50 (CAKI-1 renal): 0.151 µM
- TGI (CAKI-1 renal): > 100 µM
- GI50 (SK-MEL-5 melanoma): 3.81 µM
- TGI (SK-MEL-5 melanoma): > 100 µM
- GI50 (U251 CNS): 30.9 µM
- TGI (U251 CNS): > 100 µM
- GI50 (NCI-H522 lung): 2.64 µM
- TGI (NCI-H522 lung): > 100 µM
- GI50 (NCI-H23 lung): 9.44 µM
- TGI (NCI-H23 lung): > 100 µM
- GI50 (786-0 renal): 3.94 µM
- TGI (786-0 renal): > 100 µM
- GI50 (MCF7 breast): 0.329 µM
- TGI (MCF7 breast): > 100 µM
- GI50 (SF-539 CNS): 2.05 µM
- TGI (SF-539 CNS): > 100 µM
- GI50 (HS 578T breast): 0.254 µM
- TGI (HS 578T breast): > 31.2 µM
- GI50 (TK-10 renal): 0.312 µM
- TGI (TK-10 renal): > 100 µM
- GI50 (SNB-19 CNS): 4.81 µM
- TGI (SNB-19 CNS): > 100 µM
- GI50 (MOLT-4 leukemia): 11.5 µM
- TGI (MOLT-4 leukemia): > 100 µM
- GI50 (HCC-2998 colon): 2 µM
- TGI (HCC-2998 colon): > 100 µM
- GI50 (UACC-257 melanoma): 3.92 µM
- TGI (UACC-257 melanoma): > 100 µM
- GI50 (NCI-H460 lung): > 100 µM
- TGI (NCI-H460 lung): > 100 µM
- GI50 (OVCAR-4 ovarian): 1.03 µM
- TGI (OVCAR-4 ovarian): > 100 µM
- GI50 (A549 NSCLC): 2.92 µM
- TGI (A549 NSCLC): > 100 µM
- GI50 (NCI/ADR-RES ovarian): 2.33 µM
- TGI (NCI/ADR-RES ovarian): > 100 µM
- GI50 (KM12 colon): > 27.8 µM
- TGI (KM12 colon): > 100 µM
- GI50 (T-47D breast): 0.585 µM
- TGI (T-47D breast): > 100 µM
- GI50 (SF-268 CNS): > 100 µM
- TGI (SF-268 CNS): > 100 µM

Source: PubChem BioAssay (NCI)
